Results on 13 molecules are retold here after patent publication US20240100170A1, “CYCLIC-AMP RESPONSE ELEMENT BINDING PROTEIN (CBP) AND/OR ADENOVIRAL E1A BINDING PROTEIN OF 300 KDA (P300) DEGRADATION COMPOUNDS AND METHODS OF USE” (CULLGEN (SHANGHAI), INC., priority 2020, published 2024).

The structures appear in SMILES notation. Like-named read-outs stand apart in the source and are kept apart here.

Assay [1] has as its system LNCaP prostate cancer cell. The assay can be described thus: LNCaP cell viability (CellTiter-Glo). Type of assay: cell-based. As to conditions: Homo sapiens, 72 h, LNCaP cell viability, 3 days, CellTiter-Glo. Put shortly: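 LNCaP cells (5000/well, RPMI 1640 + 10% FBS, 37 °C) treated with compounds in 12-point 3-fold serial dilution for three days. Viability read by CellTiter-Glo luminescence, normalized to untreated cells; IC50 from least-squares nonlinear regression.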

Assay [2] concerns the target P300 (Homo sapiens, UniProt Q09472). The assay can be described thus: percentage of inhibition (degradation) of p300 at 10 nM, Tables 2-4. It is filed as cell-based. Set-up: LNCaP or 22RV1 cells that express CBP/P300 proteins were treated with GNE-781 or the bivalent compounds; endogenous in cells; host or cells: LNCaP or 22RV1 (not given). The conditions noted are these: p300, 10 nM; for inhibition at 0.01 µM: read-out: Degradation (10 nM). How it is done: Cultured cells or tissue chunks were washed with cold PBS once and lysed in cold RIPA buffer supplemented with protease inhibitors and phosphatase inhibitors (Beyotime Biotechnology). The solutions were then incubated at 4° C. for 30 minutes with gentle agitation to fully lyse cells. Cell lysates were centrifuged at 13,000 rpm for 10 minutes at 4° C. and pellets were discarded. Total protein concentrations in the lysates were determined by BCA assays (Beyotime Biotechnology). Cell lysates were mixed with Laemmli loading buffer to 1 X and heated at 99° C. for 5 min. Proteins were resolved on SDS-PAGE and visualized by chemiluminescence. Images were taken by a ChemiDoc MP Imaging system (Bio-Rad). Protein bands were quantitated using the accompanied software provided by Bio-Rad.

P300, sequence (Q09472 whole entry): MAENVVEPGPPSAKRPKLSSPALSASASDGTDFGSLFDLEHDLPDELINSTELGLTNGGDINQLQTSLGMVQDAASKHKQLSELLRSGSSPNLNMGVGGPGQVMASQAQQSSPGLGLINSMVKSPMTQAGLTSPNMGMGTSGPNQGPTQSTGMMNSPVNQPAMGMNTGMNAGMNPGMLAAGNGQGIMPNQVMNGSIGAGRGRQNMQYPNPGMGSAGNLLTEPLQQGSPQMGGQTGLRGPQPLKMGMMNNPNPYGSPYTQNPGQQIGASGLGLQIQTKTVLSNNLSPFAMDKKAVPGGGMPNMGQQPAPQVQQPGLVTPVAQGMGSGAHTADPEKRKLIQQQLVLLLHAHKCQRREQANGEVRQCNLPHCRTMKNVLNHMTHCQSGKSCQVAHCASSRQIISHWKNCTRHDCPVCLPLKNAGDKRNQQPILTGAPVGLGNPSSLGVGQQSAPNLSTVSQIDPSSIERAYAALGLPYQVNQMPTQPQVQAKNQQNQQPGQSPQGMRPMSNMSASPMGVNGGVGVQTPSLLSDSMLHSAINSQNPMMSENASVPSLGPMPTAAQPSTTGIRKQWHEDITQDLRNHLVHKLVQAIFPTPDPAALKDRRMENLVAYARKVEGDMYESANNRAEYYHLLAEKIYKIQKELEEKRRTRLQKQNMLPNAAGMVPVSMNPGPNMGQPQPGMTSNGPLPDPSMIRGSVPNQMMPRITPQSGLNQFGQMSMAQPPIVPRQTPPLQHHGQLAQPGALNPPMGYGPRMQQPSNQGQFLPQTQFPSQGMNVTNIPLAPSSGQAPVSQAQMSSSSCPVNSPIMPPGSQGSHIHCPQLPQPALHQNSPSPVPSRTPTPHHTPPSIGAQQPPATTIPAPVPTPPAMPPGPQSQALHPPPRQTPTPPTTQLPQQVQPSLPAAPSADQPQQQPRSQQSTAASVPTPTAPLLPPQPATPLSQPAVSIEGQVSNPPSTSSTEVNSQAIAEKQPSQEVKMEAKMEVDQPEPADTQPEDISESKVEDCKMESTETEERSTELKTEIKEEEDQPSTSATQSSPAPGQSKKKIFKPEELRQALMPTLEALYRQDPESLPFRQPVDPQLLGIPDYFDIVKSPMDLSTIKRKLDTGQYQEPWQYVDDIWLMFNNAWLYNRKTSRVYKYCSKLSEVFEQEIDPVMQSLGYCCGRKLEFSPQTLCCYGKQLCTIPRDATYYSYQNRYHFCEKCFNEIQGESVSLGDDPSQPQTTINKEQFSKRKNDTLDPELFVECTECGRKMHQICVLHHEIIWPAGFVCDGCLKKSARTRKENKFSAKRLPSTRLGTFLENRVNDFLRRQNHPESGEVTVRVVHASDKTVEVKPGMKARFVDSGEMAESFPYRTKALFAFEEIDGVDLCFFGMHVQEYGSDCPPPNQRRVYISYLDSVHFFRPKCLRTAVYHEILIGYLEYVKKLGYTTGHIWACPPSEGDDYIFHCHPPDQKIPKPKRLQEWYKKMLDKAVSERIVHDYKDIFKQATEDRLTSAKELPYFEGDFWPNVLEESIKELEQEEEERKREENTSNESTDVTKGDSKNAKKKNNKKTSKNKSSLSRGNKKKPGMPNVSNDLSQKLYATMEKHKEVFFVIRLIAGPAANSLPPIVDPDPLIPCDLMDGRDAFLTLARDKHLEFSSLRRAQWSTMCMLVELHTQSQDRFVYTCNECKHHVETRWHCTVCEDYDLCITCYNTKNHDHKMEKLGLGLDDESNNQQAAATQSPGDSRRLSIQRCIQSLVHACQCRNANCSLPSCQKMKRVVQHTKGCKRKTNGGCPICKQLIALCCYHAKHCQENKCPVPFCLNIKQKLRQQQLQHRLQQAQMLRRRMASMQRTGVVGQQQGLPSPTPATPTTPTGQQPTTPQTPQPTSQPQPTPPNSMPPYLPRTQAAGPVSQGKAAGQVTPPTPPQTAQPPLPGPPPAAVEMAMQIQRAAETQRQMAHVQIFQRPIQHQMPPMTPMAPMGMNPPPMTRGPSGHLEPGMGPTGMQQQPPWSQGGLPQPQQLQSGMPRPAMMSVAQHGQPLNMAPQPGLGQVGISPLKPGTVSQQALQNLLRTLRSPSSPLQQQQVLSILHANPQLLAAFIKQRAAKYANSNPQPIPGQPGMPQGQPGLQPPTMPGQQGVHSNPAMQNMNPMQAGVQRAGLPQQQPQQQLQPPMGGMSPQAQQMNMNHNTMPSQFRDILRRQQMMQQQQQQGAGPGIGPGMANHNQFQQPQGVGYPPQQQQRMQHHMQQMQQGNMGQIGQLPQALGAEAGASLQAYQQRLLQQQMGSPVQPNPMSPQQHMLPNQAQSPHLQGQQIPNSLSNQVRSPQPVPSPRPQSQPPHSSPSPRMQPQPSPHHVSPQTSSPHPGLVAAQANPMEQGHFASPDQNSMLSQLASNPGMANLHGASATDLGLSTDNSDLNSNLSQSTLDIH

`CC(=O)N1CCc2c(c(N3CCCc4cc(-c5cnn(C)c5)c(C(F)F)cc43)nn2C2CCN(C(=O)CCN3CCN(CC#Cc4ccc5c(c4)n(C)c(=O)n5C4CCC(=O)NC4=O)CC3)CC2)C1` (centres unmarked) [P-233, 3-(5-(3-(4-(3-(4-(5-Acetyl-3-(7-(difluoromethyl)-6-(1-methyl-1H-pyrazol-4-yl)-3,4-dihydroquinolin-1(2H)-yl)-4,5,6,7-tetrahydro-1H-pyrazolo[4,3-c]pyridin-1-yl)piperidin-1-yl)-3-oxopropyl)piperazin-1-yl)prop-1-yn-1-yl)-3-methyl-2-oxo-2,3-dihydro-1H-benzo[d]imidazol-1-yl)piperidine-2,6-dione]: in assay [1] (Table 4), it took 18.2 nM to reach half-maximal inhibition (IC50). The inhibition at 0.01 µM in assay [2] (Table 4) was 50 to 80%.

The molecule `CC(=O)N1CCc2c(c(N3CCCc4cc(-c5cnn(C)c5)c(C(F)F)cc43)nn2C2CCN(CCN3CCC(CNc4cccc5c4C(=O)N(C4CCC(=O)NC4=O)C5=O)CC3)CC2)C1` (centres unmarked) [P-143, 4-(((1-(2-(4-(5-acetyl-3-(7-(difluoromethyl)-6-(1-methyl-1H-pyrazol-4-yl)-3,4-dihydroquinolin-1(2H)-yl)-4,5,6,7-tetrahydro-1H-pyrazolo[4,3-c]pyridin-1-yl)piperidin-1-yl)ethyl)piperidin-4-yl)methyl)amino)-2-(2,6-dioxopiperidin-3-yl)isoindoline-1,3-dione] came in with an IC50 in assay [1] (Table 3) of 1.5 nM. The “Degradation (10 nM)” value in assay [2] (Table 3) is recorded as “A (A: Degradation ≥ 80%)”.

`CC(=O)N1CCc2c(c(N3CCCc4cc(-c5cnn(C)c5)c(C(F)F)cc43)nn2C2CCN(CCCN3CCC(Cn4c(=O)n(C5CCC(=O)NC5=O)c5ccccc54)CC3)CC2)C1` (centres unmarked) [P-235, 3-(3-((1-(3-(4-(5-Acetyl-3-(7-(difluoromethyl)-6-(1-methyl-1H-pyrazol-4-yl)-3,4-dihydroquinolin-1(2H)-yl)-4,5,6,7-tetrahydro-1H-pyrazolo[4,3-c]pyridin-1-yl)piperidin-1-yl)propyl)piperidin-4-yl)methyl)-2-oxo-2,3-dihydro-1H-benzo[d]imidazol-1-yl)piperidine-2,6-dione] returned an IC50 in assay [1] (Table 4) of 844 nM. In assay [2] (Table 4), the inhibition at 0.01 µM is less than 20%.

Turning to `CC(=O)N1CCc2c(c(N3CCCc4cc(-c5cnn(C)c5)c(C(F)F)cc43)nn2C2CCN(Cc3ccc(COc4cccc5c4C(=O)N(C4CCC(=O)NC4=O)C5=O)cc3)CC2)C1` (centres unmarked) [P-195, 4-((4-((4-(5-acetyl-3-(7-(difluoromethyl)-6-(1-methyl-1H-pyrazol-4-yl)-3,4-dihydroquinolin-1(2H)-yl)-4,5,6,7-tetrahydro-1H-pyrazolo[4,3-c]pyridin-1-yl)piperidin-1-yl)methyl)benzyl)oxy)-2-(2,6-dioxopiperidin-3-yl)isoindoline-1,3-dione], in assay [1] (Table 4), the IC50 is 17.6 nM. In assay [2] (Table 4), the inhibition at 0.01 µM was in the range of 50 to 80%.

`CC(=O)N1CCc2c(c(N3CCCc4cc(-c5cnn(C)c5)c(C(F)F)cc43)nn2C2CCN(CCCC3CCN(c4cccc5c4C(=O)N(C4CCC(=O)NC4=O)C5=O)CC3)CC2)C1` (centres unmarked) [P-249, 4-(4-(3-(4-(5-acetyl-3-(7-(difluoromethyl)-6-(1-methyl-1H-pyrazol-4-yl)-3,4-dihydroquinolin-1(2H)-yl)-4,5,6,7-tetrahydro-1H-pyrazolo[4,3-c]pyridin-1-yl)piperidin-1-yl)propyl)piperidin-1-yl)-2-(2,6-dioxopiperidin-3-yl)isoindoline-1,3-dione] came in with an IC50 in assay [1] (Table 4) of 0.1 nM. Also, the inhibition at 0.01 µM in assay [2] (Table 4) is more than 80%.

Take `CC(=O)N1CCc2c(c(N3CCCc4cc(-c5cnn(C)c5)c(C(F)F)cc43)nn2C2CCN(C(=O)CCCN3CCC(C#Cc4cccc5c4ccn5C4CCC(=O)NC4=O)CC3)CC2)C1` (centres unmarked) [P-223, 3-(4-((1-(4-(4-(5-Acetyl-3-(7-(difluoromethyl)-6-(1-methyl-1H-pyrazol-4-yl)-3,4-dihydroquinolin-1(2H)-yl)-4,5,6,7-tetrahydro-1H-pyrazolo[4,3-c]pyridin-1-yl)piperidin-1-yl)-4-oxobutyl)piperidin-4-yl)ethynyl)-1H-indol-1-yl)piperidine-2,6-dione]: in assay [1] (Table 4), inhibition was half-maximal at 43.7 nM (IC50). Besides, in assay [2] (Table 4), the inhibition at 0.01 µM lay in the range of 50 to 80%.

`CC(=O)N1CCc2c(c(N3CCCc4cc(-c5cnn(C)c5)c(C(F)F)cc43)nn2C2CCN(CCCN3CCC(CNc4cccc5c4C(=O)N(C4CCC(=O)NC4=O)C5=O)CC3)CC2)C1` (centres unmarked) [P-193, 4-(((1-(3-(4-(5-acetyl-3-(7-(difluoromethyl)-6-(1-methyl-1H-pyrazol-4-yl)-3,4-dihydroquinolin-1(2H)-yl)-4,5,6,7-tetrahydro-1H-pyrazolo[4,3-c]pyridin-1-yl)piperidin-1-yl)propyl)piperidin-4-yl)methyl)amino)-2-(2,6-dioxopiperidin-3-yl)isoindoline-1,3-dione] came in with an IC50 in assay [1] (Table 4) of 3.2 nM. In addition, the inhibition at 0.01 µM in assay [2] (Table 4) was more than 80%.

Consider `CC(=O)N1CCc2c(c(N3CCCc4cc(-c5cnn(C)c5)c(C(F)F)cc43)nn2C2CCN(CCC3CCN(CCCc4cccc5c4C(=O)N(C4CCC(=O)NC4=O)C5=O)CC3)CC2)C1` (centres unmarked) [P-246, 4-(3-(4-(2-(4-(5-acetyl-3-(7-(difluoromethyl)-6-(1-methyl-1H-pyrazol-4-yl)-3,4-dihydroquinolin-1(2H)-yl)-4,5,6,7-tetrahydro-1H-pyrazolo[4,3-c]pyridin-1-yl)piperidin-1-yl)ethyl)piperidin-1-yl)propyl)-2-(2,6-dioxopiperidin-3-yl)isoindoline-1,3-dione], for which the IC50 in assay [1] (Table 4) amounted to 298 nM. Besides, the inhibition at 0.01 µM in assay [2] (Table 4) was 20 to 50%.

`CC(=O)N1CCc2c(c(N3CCCc4cc(-c5cnn(C)c5)c(C(F)F)cc43)nn2C2CCN(C(=O)CCN3CCC(C#Cc4ccc5c(c4)n(C)c(=O)n5C4CCC(=O)NC4=O)CC3)CC2)C1` (centres unmarked) [P-212, 3-(5-((1-(3-(4-(5-acetyl-3-(7-(difluoromethyl)-6-(1-methyl-1H-pyrazol-4-yl)-3,4-dihydroquinolin-1(2H)-yl)-4,5,6,7-tetrahydro-1H-pyrazolo[4,3-c]pyridin-1-yl)piperidin-1-yl)-3-oxopropyl)piperidin-4-yl)ethynyl)-3-methyl-2-oxo-2,3-dihydro-1H-benzo[d]imidazol-1-yl)piperidine-2,6-dione] had an IC50 in assay [1] (Table 4) of 5.5 nM. The inhibition at 0.01 µM in assay [2] (Table 4) is more than 80%.

The molecule `CC(=O)N1CCc2c(c(N3CCCc4cc(-c5cnn(C)c5)c(C(F)F)cc43)nn2C2CCN(C(=O)CC3CCN(c4ccc(C(=O)NC5CCC(=O)NC5=O)c5ncccc45)CC3)CC2)C1` (centres unmarked) [P-256, 5-(4-(2-(4-(5-acetyl-3-(7-(difluoromethyl)-6-(1-methyl-1H-pyrazol-4-yl)-3,4-dihydroquinolin-1(2H)-yl)-4,5,6,7-tetrahydro-1H-pyrazolo[4,3-c]pyridin-1-yl)piperidin-1-yl)-2-oxoethyl)piperidin-1-yl)-N-(2,6-dioxopiperidin-3-yl)quinoline-8-carboxamide] returned an IC50 in assay [1] (Table 4) of 1.3 nM. The inhibition at 0.01 µM in assay [2] (Table 4) was more than 80%.

`CNC(=O)N1CCc2c(c(N3CCCc4cc(-c5cnn(C)c5)c(C(F)F)cc43)nn2C2CCN(C(=O)CCCCCCn3c(=O)n(C4CCC(=O)NC4=O)c4ccccc43)CC2)C1` (centres unmarked) [P-106, 3-(7-(difluoromethyl)-6-(1-methyl-1H-pyrazol-4-yl)-3,4-dihydroquinolin-1(2H)-yl)-1-(1-(7-(3-(2,6-dioxopiperidin-3-yl)-2-oxo-2,3-dihydro-1H-benzo[d]imidazol-1-yl)heptanoyl)piperidin-4-yl)-N-methyl-1,4,6,7-tetrahydro-5H-pyrazolo[4,3-c]pyridine-5-carboxamide]: the IC50 in assay [1] (Table 3) was found to be 24.2 nM. Also, in assay [2] (Table 3), the “Degradation (10 nM)” value is recorded as “B (B: 50% ≤ Degradation < 80%)”.

Take `CNC(=O)N1CCc2c(c(N3CCCc4cc(-c5cnn(CC(=O)NCCOCCC(=O)N[C@H](C(=O)N6C[C@H](O)C[C@H]6C(=O)NCc6ccc(-c7scnc7C)cc6)C(C)(C)C)c5)c(C(F)F)cc43)nn2C2CCOCC2)C1` [P-074, 3-(7-(difluoromethyl)-6-(1-(2-((2-(3-(((S)-1-((2S,4R)-4-hydroxy-2-((4-(4-methylthiazol-5-yl)benzyl)carbamoyl)pyrrolidin-1-yl)-3,3-dimethyl-1-oxobutan-2-yl)amino)-3-oxopropoxy)ethyl)amino)-2-oxoethyl)-1H-pyrazol-4-yl)-3,4-dihydroquinolin-1(2H)-yl)-N-methyl-1-(tetrahydro-2H-pyran-4-yl)-1,4,6,7-tetrahydro-5H-pyrazolo[4,3-c]pyridine-5-carboxamide]: in assay [1] (Table 3), the IC50 was more than 10000 nM. Besides, in assay [2] (Table 3), the inhibition at 0.01 µM was less than 20%.

`CC(=O)N1CCc2c(c(N3CCCc4cc(-c5cnn(C)c5)c(C(F)F)cc43)nn2C2CCN(C(=O)CCCN3CCC(C#Cc4ccc5c(c4)n(C)c(=O)n5C4CCC(=O)NC4=O)CC3)CC2)C1` (centres unmarked) [P-211, 3-(5-((1-(4-(4-(5-acetyl-3-(7-(difluoromethyl)-6-(1-methyl-1H-pyrazol-4-yl)-3,4-dihydroquinolin-1(2H)-yl)-4,5,6,7-tetrahydro-1H-pyrazolo[4,3-c]pyridin-1-yl)piperidin-1-yl)-4-oxobutyl)piperidin-4-yl)ethynyl)-3-methyl-2-oxo-2,3-dihydro-1H-benzo[d]imidazol-1-yl)piperidine-2,6-dione]: in assay [1] (Table 4), the IC50 stood at 3.5 nM. For the same molecule, the inhibition at 0.01 µM in assay [2] (Table 4) is more than 80%.
